The numbers were not newly measured in patent publication US20220016119A1, “METHODS AND TREATMENTS FOR ERECTILE DYSFUNCTION” (Record Buck Farms Medical Cannabis, LLC, priority 2018, published 2022), which cites them from elsewhere.

The conditions of this data set: doses of up to 1500 mg/day.

In the case of `C=C(C)[C@@H]1CCC(C)=C[C@H]1c1c(O)cc(CCCCC)cc1O` [Cannabidiol, cannabidiol], the “adverse effects in patients” value is on record as “no significant adverse effects”.
